# Source: patent publication US9687479B2, “Multisubstituted aromatic compounds as serine protease inhibitors” (VERSEON CORPORATION, priority 2013, dated 2017)
# Columns and labels:
# Human KLKB1 = Human KLKB1 (Homo sapiens (Human), UniProt P03952); test: KLKB1 kallikrein activity inhibition assay (chromogenic substrate S-2302); type: biochemical; conditions: Table B
# Outline: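 Enzyme at a final 3 nM was assayed in 0.05 M Tris pH 7.4, 0.01 M NaCl and 0.2% PEG-8000 at room temperature, with compounds as ten-point threefold dilutions.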
# Human thrombin = Human thrombin (Homo sapiens (Human), UniProt P00734); test: Thrombin protease activity inhibition assay (chromogenic substrate S-2238); type: biochemical; conditions: 3 nM thrombin, 125 μM S-2238, 10 min pre-incubation, RT
# Outline: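 Ten-point, three-fold serial dilutions of compound tested against 3 nM enzyme at RT in Tris buffer (0.05 M, pH 7.4) with 0.015 M NaCl and 0.01% PEG-8000.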
# Sequence of Human KLKB1 (P03952 391-638 limits assumed): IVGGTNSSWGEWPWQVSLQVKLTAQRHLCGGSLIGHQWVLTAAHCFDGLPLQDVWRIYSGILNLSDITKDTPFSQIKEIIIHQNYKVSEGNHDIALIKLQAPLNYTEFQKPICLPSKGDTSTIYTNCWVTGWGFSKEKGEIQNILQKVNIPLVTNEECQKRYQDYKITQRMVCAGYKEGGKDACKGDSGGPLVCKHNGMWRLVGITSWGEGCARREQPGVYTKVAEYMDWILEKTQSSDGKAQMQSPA
# Sequence of Human KLKB1 (P03952 20-390 partner limits assumed): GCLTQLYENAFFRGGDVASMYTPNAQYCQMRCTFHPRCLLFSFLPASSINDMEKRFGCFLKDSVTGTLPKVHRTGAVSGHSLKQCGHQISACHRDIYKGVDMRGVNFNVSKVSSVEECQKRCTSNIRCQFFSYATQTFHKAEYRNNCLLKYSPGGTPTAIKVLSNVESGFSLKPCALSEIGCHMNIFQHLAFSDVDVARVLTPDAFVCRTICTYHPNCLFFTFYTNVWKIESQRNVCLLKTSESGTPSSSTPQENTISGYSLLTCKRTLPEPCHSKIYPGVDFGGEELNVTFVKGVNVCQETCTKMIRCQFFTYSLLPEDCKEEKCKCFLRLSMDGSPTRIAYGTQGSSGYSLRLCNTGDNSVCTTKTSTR
IC50 (Human KLKB1),IC50 (Human thrombin),SMILES
0.1 to 1 µM,< 0.1 µM,"O=C(c1ccsc1)n1nc(-c2cccn(Cc3ccsc3)c2=O)cc1NCc1ccc(Cl)s1 [Cmpd 203, 3-(5-[(5-chlorothiophen-2-yl)methyl]amino-1-[(thiophen-3-yl)carbonyl]-1H-pyrazol-3-yl)-1-(thiophen-3-ylmethyl)-1,2-dihydropyridin-2-one]"
1 to 10 µM,< 0.1 µM,"COCCn1cccc(-c2cc(NCc3ccc(Cl)s3)n(C(=O)c3ccc(OC)cc3OC)n2)c1=O [Cmpd 122, 3-(5-[(5-chlorothiophen-2-yl)methyl]amino-1-[(2,4-dimethoxyphenyl)carbonyl]-1H-pyrazol-3-yl)-1-(2-methoxyethyl)-1,2-dihydropyridin-2-one]"
1 to 10 µM,< 0.1 µM,"COCC(C)(C)C(=O)n1nc(-c2cccn(Cc3ncccn3)c2=O)cc1NCc1ccc(Cl)s1 [Cmpd 104, 3-(5-[(5-chlorothiophen-2-yl)methyl]amino-1-(3-methoxy-2,2-dimethylpropanoyl)-1H-pyrazol-3-yl)-1-(pyrimidin-2-ylmethyl)-1,2-dihydropyridin-2-one]"
0.1 to 1 µM,< 0.1 µM,"O=C(c1ccc(N2CCOCC2)cc1)n1nc(-c2cccn(Cc3ccncc3)c2=O)cc1NCc1ccc(Cl)s1 [Cmpd 214, 3-(5-[(5-chlorothiophen-2-yl)methyl]amino-1-[4-(morpholin-4-yl)phenyl]carbonyl-1H-pyrazol-3-yl)-1-(pyridin-4-ylmethyl)-1,2-dihydropyridin-2-one]"
1 to 10 µM,< 0.1 µM,"COCCn1cccc(-c2cc(NCc3ccc(Cl)s3)n(C(=O)c3ccc(N4CCOCC4)cc3)n2)c1=O [Cmpd 208, 3-(5-[(5-chlorothiophen-2-yl)methyl]amino-1-[4-(morpholin-4-yl)phenyl]carbonyl-1H-pyrazol-3-yl)-1-(2-methoxyethyl)-1,2-dihydropyridin-2-one]"
0.1 to 1 µM,< 0.1 µM,"O=C(c1ccccc1Cl)n1nc(-c2cccn(Cc3ccco3)c2=O)cc1NCc1ccc(Cl)s1 [Cmpd 243, 3-1-[(2-chlorophenyl)carbonyl]-5-[(5-chlorothiophen-2-yl)methyl]amino-1H-pyrazol-3-yl-1-(furan-2-ylmethyl)-1,2-dihydropyridin-2-one]"
10 to 100 µM,< 0.1 µM,"O=C(c1ccoc1)n1nc(-c2cccn(Cc3ccsc3)c2=O)cc1NCc1ccc(Cl)s1 [Cmpd 179, 3-(5-[(5-chlorothiophen-2-yl)methyl]amino-1-[(furan-3-yl)carbonyl]-1H-pyrazol-3-yl)-1-(thiophen-3-ylmethyl)-1,2-dihydropyridin-2-one]"
0.1 to 1 µM,< 0.1 µM,"O=C(c1ccsc1)n1nc(-c2cccn(Cc3ncccn3)c2=O)cc1NCc1ccc(Cl)s1 [Cmpd 201, 3-(5-[(5-chlorothiophen-2-yl)methyl]amino-1-[(thiophen-3-yl)carbonyl]-1H-pyrazol-3-yl)-1-(pyrimidin-2-ylmethyl)-1,2-dihydropyridin-2-one]"
0.1 to 1 µM,< 0.1 µM,"O=C(c1ccsc1)n1nc(-c2cccn(Cc3ccoc3)c2=O)cc1NCc1ccc(Cl)s1 [Cmpd 196, 3-(5-[(5-chlorothiophen-2-yl)methyl]amino-1-[(thiophen-3-yl)carbonyl]-1H-pyrazol-3-yl)-1-(furan-3-ylmethyl)-1,2-dihydropyridin-2-one]"
10 to 100 µM,< 0.1 µM,"O=C(c1ccc(N2CCOCC2)cc1)n1nc(-c2cccn(Cc3ccoc3)c2=O)cc1NCc1ccc(Cl)s1 [Cmpd 210, 3-(5-[(5-chlorothiophen-2-yl)methyl]amino-1-[4-(morpholin-4-yl)phenyl]carbonyl-1H-pyrazol-3-yl)-1-(furan-3-ylmethyl)-1,2-dihydropyridin-2-one]"
0.1 to 1 µM,< 0.1 µM,"COc1ccccc1C(=O)n1nc(-c2cccn(Cc3cccnc3)c2=O)cc1NCc1ccc(Cl)s1 [Cmpd 140, 3-(5-[(5-chlorothiophen-2-yl)methyl]amino-1-[(2-methoxyphenyl)carbonyl]-1H-pyrazol-3-yl)-1-(pyridin-3-ylmethyl)-1,2-dihydropyridin-2-one]"
> 100 µM,1 to 10 µM,"O=c1c(-c2cc(NCc3ccc(Cl)s3)[nH]n2)cccn1Cc1ccncc1 [Cmpd 229, 3-(5-[(5-chlorothiophen-2-yl)methyl]amino-1H-pyrazol-3-yl)-1-(pyridin-4-ylmethyl)-1,2-dihydropyridin-2-one]"
10 to 100 µM,< 0.1 µM,"CC(C)(CO)C(=O)n1nc(-c2cccn(Cc3ccco3)c2=O)cc1NCc1ccc(Cl)s1 [Cmpd 93, 3-(5-[(5-chlorothiophen-2-yl)methyl]amino-1-(3-hydroxy-2,2-dimethylpropanoyl)-1H-pyrazol-3-yl)-1-(furan-2-ylmethyl)-1,2-dihydropyridin-2-one]"
0.1 to 1 µM,< 0.1 µM,"O=C(c1ccsc1)n1nc(-c2cccn(Cc3ccccn3)c2=O)cc1NCc1ccc(Cl)s1 [Cmpd 198, 3-(5-[(5-chlorothiophen-2-yl)methyl]amino-1-[(thiophen-3-yl)carbonyl]-1H-pyrazol-3-yl)-1-(pyridin-2-ylmethyl)-1,2-dihydropyridin-2-one]"
1 to 10 µM,< 0.1 µM,"O=C(c1cccc2c1OCCO2)n1nc(-c2cccn(Cc3ncccn3)c2=O)cc1NCc1ccc(Cl)s1 [Cmpd 116, 3-(5-[(5-chlorothiophen-2-yl)methyl]amino-1-[(2,3-dihydro-1,4-benzodioxin-5-yl)carbonyl]-1H-pyrazol-3-yl)-1-(pyrimidin-2-ylmethyl)-1,2-dihydropyridin-2-one]"
1 to 10 µM,< 0.1 µM,"CC(C)(CO)C(=O)n1nc(-c2cccn(Cc3cccnc3)c2=O)cc1NCc1ccc(Cl)s1 [Cmpd 94, 3-(5-[(5-chlorothiophen-2-yl)methyl]amino-1-(3-hydroxy-2,2-dimethylpropanoyl)-1H-pyrazol-3-yl)-1-(pyridin-3-ylmethyl)-1,2-dihydropyridin-2-one]"
1 to 10 µM,< 0.1 µM,"O=C(c1ccoc1)n1nc(-c2cccn(Cc3cccs3)c2=O)cc1NCc1ccc(Cl)s1 [Cmpd 5, 3-(5-[(5-chlorothiophen-2-yl)methyl]amino-1-[(furan-3-yl)carbonyl]-1H-pyrazol-3-yl)-1-(thiophen-2-ylmethyl)-1,2-dihydropyridin-2-one]"
10 to 100 µM,0.1 to 1 µM,"O=C(c1ccco1)n1nc(-c2ccc[nH]c2=O)cc1NCc1ccccc1 [Cmpd 237, 3-[5-(benzylamino)-1-[(furan-2-yl)carbonyl]-1H-pyrazol-3-yl]-1,2-dihydropyridin-2-one]"
1 to 10 µM,< 0.1 µM,"COCC(C)(C)C(=O)n1nc(-c2cccn(Cc3cccnn3)c2=O)cc1NCc1ccc(Cl)s1 [Cmpd 100, 3-(5-[(5-chlorothiophen-2-yl)methyl]amino-1-(3-methoxy-2,2-dimethylpropanoyl)-1H-pyrazol-3-yl)-1-(pyridazin-3-ylmethyl)-1,2-dihydropyridin-2-one]"
0.1 to 1 µM,< 0.1 µM,"O=C(c1ccsc1)n1nc(-c2cccn(Cc3ccccc3)c2=O)cc1NCc1ccc(Cl)s1 [Cmpd 52, 1-benzyl-3-(5-[(5-chlorothiophen-2-yl)methyl]amino-1-[(thiophen-3-yl)carbonyl]-1H-pyrazol-3-yl)-1,2-dihydropyridin-2-one]"
10 to 100 µM,< 0.1 µM,"COc1ccc(C(=O)n2nc(-c3cccn(Cc4ccccc4)c3=O)cc2NCc2ccc(Cl)s2)c(OC)c1 [Cmpd 46, 1-benzyl-3-(5-[(5-chlorothiophen-2-yl)methyl]amino-1-[(2,4-dimethoxyphenyl)carbonyl]-1H-pyrazol-3-yl)-1,2-dihydropyridin-2-one]"

SMILES,IC50 (Human KLKB1),IC50 (Human thrombin)
"O=C(c1cccs1)n1nc(-c2cccn(Cc3ccccc3)c2=O)cc1NCc1ccc(Cl)s1 [Cmpd 51, 1-benzyl-3-(5-[(5-chlorothiophen-2-yl)methyl]amino-1-[(thiophen-2-yl)carbonyl]-1H-pyrazol-3-yl)-1,2-dihydropyridin-2-one]",> 100 µM,< 0.1 µM
"CC1(C(=O)n2nc(-c3cccn(Cc4cccs4)c3=O)cc2NCc2ccc(Cl)s2)CCOCC1 [Cmpd 157, 3-(5-[(5-chlorothiophen-2-yl)methyl]amino-1-[(4-methyloxan-4-yl)carbonyl]-1H-pyrazol-3-yl)-1-(thiophen-2-ylmethyl)-1,2-dihydropyridin-2-one]",> 100 µM,< 0.1 µM
"COCC(C)(C)C(=O)n1nc(-c2cccn(Cc3ccco3)c2=O)cc1NCc1ccc(Cl)s1 [Cmpd 98, 3-(5-[(5-chlorothiophen-2-yl)methyl]amino-1-(3-methoxy-2,2-dimethylpropanoyl)-1H-pyrazol-3-yl)-1-(furan-2-ylmethyl)-1,2-dihydropyridin-2-one]",> 100 µM,< 0.1 µM
"Cn1cccc(-c2cc(NCc3ccc(Cl)s3)n(C(=O)c3ccccc3)n2)c1=O [Cmpd 73, 3-(1-benzoyl-5-[(5-chlorothiophen-2-yl)methyl]amino-1H-pyrazol-3-yl)-1-methyl-1,2-dihydropyridin-2-one]",> 100 µM,< 0.1 µM
"CC1(C(=O)n2nc(-c3cccn(Cc4ccccc4)c3=O)cc2NCc2ccc(Cl)s2)CCOCC1 [Cmpd 48, 1-benzyl-3-(5-[(5-chlorothiophen-2-yl)methyl]amino-1-[(4-methyloxan-4-yl)carbonyl]-1H-pyrazol-3-yl)-1,2-dihydropyridin-2-one]",> 100 µM,< 0.1 µM
"CC(C)(C)C(=O)n1nc(-c2cccn(Cc3ccco3)c2=O)cc1NCc1ccc(Cl)s1 [Cmpd 77, 3-(5-[(5-chlorothiophen-2-yl)methyl]amino-1-(2,2-dimethylpropanoyl)-1H-pyrazol-3-yl)-1-(furan-2-ylmethyl)-1,2-dihydropyridin-2-one]",> 100 µM,< 0.1 µM
"O=C(c1cccc2c1OCCO2)n1nc(-c2cccn(Cc3cccs3)c2=O)cc1NCc1ccc(Cl)s1 [Cmpd 117, 3-(5-[(5-chlorothiophen-2-yl)methyl]amino-1-[(2,3-dihydro-1,4-benzodioxin-5-yl)carbonyl]-1H-pyrazol-3-yl)-1-(thiophen-2-ylmethyl)-1,2-dihydropyridin-2-one]",> 100 µM,< 0.1 µM
